Assays:
islet cells = experiment: Insulin secretion assay in human islet cells; type: cell-based; settings: human islet cells from cadaveric donors; KRBH with 11.2 mM glucose; insulin by SPA; read-out: EC50, stimulation of insulin secretion from islet cells
Protocol: Human islets were isolated from cadaveric donors. Islets were treated with trypsin (0.25% (w/v) and cells were seeded in 96-well plates containing 3,000 cells per well. Cells were cultured in Roswell Park Memorial Institute (RMPI) media containing 10% fetal bovine serum.
For determination of insulin secretion, media was removed from islet cells and replaced with Krebs-Ringer bicarbonate buffer containing 10 mM HEPES (KRBH) and 2 mM glucose. After one hour incubation, media was replaced with KRBH conaining 11.2 mM glucose and test compounds. Insulin released into the medium from the islet cells was measured using scintillation proximity assay (SPA).

human GPR40 = target: T1, human GPR40 (Homo sapiens, UniProt O14842); experiment: Cell based aequorin assay using human GPR40; settings: CHO cells stably transfected with GPR40 and aequorin; 0.01% HSA; aequorin luminescence; read-out: Relative EC50
T1 construct: host or cells: CHO cells
Protocol: Cell-based aequorin assays were employed to characterize the modulatory activity of compounds on the GPR40 signaling pathway. In an exemplary assay, CHO cells were stably transfected with both GPR40 and Aequorin (Euroscreen). Cells were detached from the tissue culture dish with 2 mL of trypsin (0.25% (w/v)). Trypsinization was halted with 28 mL of Hanks Buffered Salt Solution containing 20 mM Hepes (H/HBSS) and 0.01% fatty acid-free human serum albumin (HSA). Coelantrazine was added to 1 ug/mL, and the cells were incubated for 2 hours at room temperature. Compounds were dissolved in DMSO for preparation of 10 mM stock solutions. Compounds were diluted in H/HBSS containing either 0.01% HSA. Serial dilutions of the test compounds were prepared to determine dose response.
Aequorin luminescence measurements were made using an EG&G Berthold 96-well luminometer, and the response was measured over a 20 second interval after cells and compounds were mixed. The maximum relative light units was plotted to determine dose response. The EC50 (effective concentration to reach 50% maximal response) was determined from the dose response plot.
Table 1 presents representative data (EC50 values) obtained for exemplary compounds of the invention for the relative activation of human GPR40. […]

T1 sequence (O14842 whole entry): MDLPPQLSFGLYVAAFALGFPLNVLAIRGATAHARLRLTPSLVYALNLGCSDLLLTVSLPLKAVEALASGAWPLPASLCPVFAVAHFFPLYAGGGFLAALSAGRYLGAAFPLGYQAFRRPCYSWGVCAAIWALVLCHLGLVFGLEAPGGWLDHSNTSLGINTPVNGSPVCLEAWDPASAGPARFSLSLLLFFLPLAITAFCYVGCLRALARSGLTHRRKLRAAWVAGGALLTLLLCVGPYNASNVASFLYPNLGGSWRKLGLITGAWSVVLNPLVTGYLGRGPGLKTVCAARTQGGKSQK

Cc1ccc(-c2nc(C)c(COc3ccc([C@H](CC(=O)O)C(=O)N(C)C)cc3)s2)cc1 [Example 4, (S)-4-(dimethylamino)-3-(4-((4-methyl-2-p-tolylthiazol-5-yl)methoxy)phenyl)-4-oxobutanoic acid]
EC50 (islet cells): < 1 µM
EC50 (human GPR40): 0.01 to 0.1 µM

Cc1cc(Cl)ccc1-c1cccc(COc2ccc([C@H](CC(=O)O)C(=O)N(C)C)cc2)c1 [Example 3, (S)-3-[4-(4′-chloro-2′-methyl-biphenyl-3-ylmethoxy)-phenyl]-N,N-dimethyl-succinamic acid]
EC50 (human GPR40): 0.01 to 0.1 µM

Cn1ccnc1C(CC(=O)O)c1ccc(OCc2cccc(-c3ccc(C(F)(F)F)cc3)c2)cc1 (centres unmarked)
EC50 (human GPR40): 0.1 to 1 µM

CCCCOc1ccc(C)cc1-c1ccc(COc2ccc([C@H](CC(=O)O)c3nnnn3C)cc2)cc1
EC50 (human GPR40): 0.01 to 0.1 µM

CCCCOc1ccc(C)cc1-c1ccc(COc2ccc(C(CC(=O)O)c3ncco3)cc2)cc1 (centres unmarked)
EC50 (human GPR40): 0.01 to 0.1 µM

Cc1cc(Cl)ccc1-c1cccc(COc2ccc([C@@H](CC(=O)O)c3ncco3)cc2)c1
EC50 (human GPR40): 1 to 10 µM

CCCCOc1ccc(C)cc1-c1ccc(COc2ccc([C@H](CC(=O)O)c3ncco3)cc2)cc1 [Example 10, (S)-3-[4-(5′-methyl-2′-butoxybiphenylmethoxy)phenyl]-3-(oxazol-2-yl)propanoic acid]
EC50 (human GPR40): 0.01 to 0.1 µM

Cc1cc(Cl)ccc1-c1cccc(COc2ccc([C@H](CC(=O)O)c3ncnn3C)cc2)c1 [Example 6, (S)-3-[4-(4′-chloro-2′-methyl-biphenyl-3-ylmethoxy)-phenyl]-3-(2-methyl-2H-1,2,4-triazol-3-yl)-propionic acid]
EC50 (human GPR40): 0.01 to 0.1 µM

CCCCOc1ccc(C)cc1-c1ccc(COc2ccc([C@@H](CC(=O)O)c3ncco3)cc2)cc1
EC50 (human GPR40): 0.1 to 1 µM

CCOc1cccc(-c2ccc(COc3ccc(C(CC(=O)O)c4ncco4)cc3)cc2)c1 (centres unmarked)
EC50 (human GPR40): 1 to 10 µM

Cc1c(Cl)cccc1-c1cccc(COc2ccc([C@H](CC(=O)O)c3nnnn3C)cc2)c1
EC50 (human GPR40): < 0.01 µM

Cc1nc(-c2ccc(C(F)(F)F)cc2)sc1COc1ccc([C@H](CC(=O)O)c2nccn2C)cc1
EC50 (human GPR40): 0.1 to 1 µM

Cc1ccc(Cl)cc1-c1cccc(COc2ccc([C@H](CC(=O)O)c3nccn3C)cc2)c1
EC50 (human GPR40): 0.01 to 0.1 µM

Cc1nc(-c2ccc(C(F)(F)F)cc2)sc1COc1ccc([C@H](CC(=O)O)C(=O)N(C)C)cc1
EC50 (human GPR40): 0.01 to 0.1 µM

Cc1c(Cl)cccc1-c1cccc(COc2ccc([C@H](CC(=O)O)c3nccn3C)cc2)c1
EC50 (human GPR40): 0.01 to 0.1 µM

O=C(O)CC(c1ccc(OCc2cccc(-c3ccc(C(F)(F)F)cc3)c2)cc1)c1ncco1 (centres unmarked)
EC50 (human GPR40): 0.01 to 0.1 µM

Cc1cc(Cl)ccc1-c1cccc(COc2ccc([C@H](CC(=O)O)c3ncco3)cc2)c1
EC50 (human GPR40): 0.01 to 0.1 µM

CCCCOc1ccc(C)cc1-c1ccc(COc2ccc([C@H](CC(=O)O)C(=O)N(C)C)cc2)cc1
EC50 (human GPR40): 0.01 to 0.1 µM

Cc1ccc(Cl)cc1-c1cccc(COc2ccc([C@H](CC(=O)O)c3nnnn3C)cc2)c1
EC50 (human GPR40): 0.01 to 0.1 µM

Cn1nnnc1[C@@H](CC(=O)O)c1ccc(OCc2cccc(-c3ccc(C(F)(F)F)cc3)c2)cc1 [Example 7, (S)-3-(1-methyl-1H-tetrazol-5-yl)-3-[4-(4′-trifluoromethyl-biphenyl-3-ylmethoxy)-phenyl]-propionic acid]
EC50 (human GPR40): 0.01 to 0.1 µM

CCOc1cccc(-c2ccc(COc3ccc([C@H](CC(=O)O)c4nccn4C)cc3)cc2)c1
EC50 (human GPR40): 0.1 to 1 µM

Cn1ncnc1[C@@H](CC(=O)O)c1ccc(OCc2cccc(-c3ccc(C(F)(F)F)cc3)c2)cc1 [Example 5, (S)-3-(2-methyl-2H-1,2,4-triazol-3-yl)-3-[4-(4′-trifluoromethyl-biphenyl-3-ylmethoxy)-phenyl]-propionic acid]
EC50 (human GPR40): 0.1 to 1 µM

Cc1nc(-c2ccc(C(F)(F)F)cc2)sc1COc1ccc([C@H](CC(=O)O)c2nnnn2C)cc1
EC50 (human GPR40): 0.01 to 0.1 µM

Cc1cc(Cl)ccc1-c1cccc(COc2ccc([C@H](CC(=O)O)c3nccn3C)cc2)c1 [Example 9, (S)-3-[4-(4′-chloro-2′-methyl-biphenyl-3-ylmethoxy)-phenyl]-3-(1-methyl-1H-imidazol-2-yl)-propionic acid]
EC50 (islet cells): < 1 µM
EC50 (human GPR40): 0.01 to 0.1 µM

CCCCOc1ccc(C)cc1-c1ccc(COc2ccc([C@H](CC(=O)O)c3ncnn3C)cc2)cc1
EC50 (human GPR40): 0.01 to 0.1 µM

Cc1nc(-c2ccc(C(F)(F)F)cc2)sc1COc1ccc(C(CC(=O)O)c2ncco2)cc1 (centres unmarked)
EC50 (human GPR40): 0.01 to 0.1 µM

CCCCOc1ccc(C)cc1-c1ccc(COc2ccc([C@H](CC(=O)O)c3nccn3C)cc2)cc1
EC50 (human GPR40): 0.1 to 1 µM

O=C(O)CC(c1ccc(OCc2cccc(Oc3ccccc3)c2)cc1)c1ncco1 (centres unmarked)
EC50 (human GPR40): 0.1 to 1 µM

CCOc1cccc(-c2ccc(COc3ccc([C@H](CC(=O)O)c4ncnn4C)cc3)cc2)c1
EC50 (human GPR40): 0.1 to 1 µM

Cc1nc(-c2ccc(C(F)(F)F)cc2)sc1COc1ccc([C@H](CC(=O)O)c2ncnn2C)cc1
EC50 (human GPR40): 0.1 to 1 µM

Cc1cc(Cl)ccc1-c1cccc(COc2ccc(C(CC(=O)O)c3ncco3)cc2)c1 (centres unmarked)
EC50 (human GPR40): 0.1 to 1 µM

Cc1cc(Cl)ccc1-c1cccc(COc2ccc([C@H](CC(=O)O)c3nnnn3C)cc2)c1 [Example 8, (S)-3-[4-(4′-chloro-2′-methyl-biphenyl-3-ylmethoxy)-phenyl]-3-(1-methyl-1H-tetrazol-5-yl)-propionic acid]
EC50 (human GPR40): 0.01 to 0.1 µM

Cn1ccnc1C(CC(=O)O)c1ccc(OCc2cccc(Oc3ccccc3)c2)cc1 (centres unmarked)
EC50 (human GPR40): 0.1 to 1 µM

— patent US7465804B2, “Compounds, pharmaceutical compositions and methods for their use in treating metabolic disorders” (Amgen Inc., priority 2005, dated 2008)
